Molecules are shown by their SMILES.

The subject of this assay is T1, Kir3.1 and Kir3.4 (IKACh).
T1 construct: gene KCNJ3; heterotetramer
In words: whole-cell patch clamp, HEK293, block of Ba-sensitive current. The class given is cell-based. The settings on record: -140 mV step from -20 mV holding; about 24 °C; bath pH 7.4, 50 mM KCl; pipette 0.1 mM GTP; Hill slope -0.48.

For the molecule `CCN(CC)CCCC(C)Nc1ccnc2cc(Cl)ccc12` (stereo not shown) [chloroquine], the IC50 came out at 1200 nM.
